In patent publication US9006426B2, “Squaric acid derivatives as inhibitors of the nicotinamide” (Topotarget A/S, priority 2008, dated 2015) one finds IC50 data, which are given here for one compound.

As a reminder, the IC50 is the concentration at which inhibition is half-maximal. Lower therefore signals greater potency.

The experiment concerns A2780 cells. In words: In vitro cell proliferation assay (SRB assay). In kind it is cell-based. The note with it: Homo sapiens, 72 h incubation, SRB staining. As to the method: In Vitro Cell Proliferation Assay (SRB Assay)
A2780 cells were seeded in 96-well plates at 2000 cells/well in 100 μL of culture medium, 4 wells were left empty for media only controls.
After 24 h the compound titrations were performed, in a separate dilution plate, by serially diluting the compounds of general formula (I) in culture medium. A 100 μL of each dilution was added to the plated cells, this was done in quadruplicate, and controls (e.g. DMSO and blanks) were included. The plates were incubated for 72 h at 37° C. in a CO2 incubator. 50 μL cold 50% trichloroacetic acid was then added to each well. After 1 h the supernatant was discarded and the wells were washed 5 times with tap water and dried at room temperature. […] Bound stain was subsequently solubilized by addition of 200 μL 10 mM Tris pH 10.5 to each well, and the plates were shaken for at least 30 minutes, and the absorbance read on an automated plate reader at 515 nm. Using the nine absorbance measurements [time zero, (Tz), control growth, (C), and test growth in the presence of drug at the seven concentration levels (Ti)], the percentage growth is calculated at each of the drug concentrations levels after averaging the quadruplet wells. Percentage growth inhibition is calculated as: [(Ti−Tz)/(C−Tz)]×100 for concentrations for which Ti>/=Tz [(Ti−Tz)/Tz]×100 for concentrations for which Ti<Tz. […]
A general note: The SRB assay estimates cell density from bound dye.

Turning to `O=c1c(NCCCCCCOc2ccc(Cl)cc2)c(Nc2ccncc2)c1=O` [SQ-7B, 3-(6-(4-chlorophenoxy)hexylamino)-4-(pyridine-4-ylamino)-cyclobut-3-ene-1,2-dione], the IC50 was found to be 40 nM.
